The record followed here is ChEMBL document CHEMBL1201862, “PubChem BioAssay data set” (2004).

Test systems include COLO 205; EKVX; HCC 2998; HCT-15; HT-29; Malme-3M; NCI-H226; NCI-H23; NCI-H460; OVCAR-4; OVCAR-5; OVCAR-8; SF-295; SK-MEL-28; SNB-19; SR; UACC-257; HOP-92.
Holding throughout (test): NCI tumour cell line growth inhibition, 48 h

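The compound was tested at five concentrations on cells cultured in 96-well plates, with a 48-hour exposure period. Abbreviation: GI50, concentration required for 50% inhibition of growth.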 Active and inactive are the calls of the source. No stated cut-off is given here; in the data, active = GI50 up to about 1.1 µM and inactive = higher. Bounds are passed on as bounds.

Turning to `CC(=O)Oc1cccc2c1C(=O)CCCC2`, the GI50 in the assay with COLO 205 is > 100 µM (inactive); with EKVX it was > 100 µM (inactive); in the assay with HCC 2998, > 100 µM (inactive); in the assay with HCT-15 it was above 100 µM; with HT-29, > 100 µM (inactive); in the assay with Malme-3M, > 100 µM (inactive). Also, the GI50 in the assay with NCI-H226, with NCI-H23, with NCI-H460, with OVCAR-4, in the assay on OVCAR-5 and with OVCAR-8 was > 100 µM (inactive) each time. In addition, the GI50 in the assay with SF-295, in the assay on SK-MEL-28, in the assay with SNB-19, in the assay on SR and in the assay on UACC-257 was > 100 µM (inactive) throughout.
For the molecule `COc1ccc(S(=O)(=O)c2nnc(S(=O)(=O)Cc3ccccc3)s2)cc1`, the GI50 in the assay with COLO 205 is 13 µM (inactive); with EKVX, 22.4 µM (inactive); with HCT-15 it was 25.7 µM; in the assay with HT-29, 17.9 µM (inactive); with NCI-H23, 27.3 µM (inactive); with NCI-H460, 17.4 µM (inactive). Further, the GI50 is 44.5 µM (inactive) in the assay with OVCAR-4; 25.8 µM (inactive) with OVCAR-5; 21.9 µM (inactive) in the assay on OVCAR-8; 33.3 µM (inactive) in the assay on SF-295; 20.5 µM (inactive) in the assay on SK-MEL-28; 20.8 µM (inactive) with SNB-19. The GI50 in the assay on UACC-257 is 14.7 µM (inactive).
Consider `CCNC(=O)c1cc(Cl)ccc1NC(=O)C12CC3CC(CC(C3)C1)C2`, for which the GI50 in the assay on COLO 205 was 31 µM (inactive); in the assay with EKVX, 21.4 µM (inactive); in the assay on HCT-15, 32.7 µM; in the assay on HOP-92, 30.4 µM (inactive); in the assay with HT-29 it was 18 µM (inactive); in the assay with Malme-3M it was > 100 µM (inactive). For the same molecule, the GI50 in the assay with NCI-H226 is > 100 µM (inactive); with NCI-H23, 56.8 µM (inactive); in the assay with NCI-H460 it was 34.3 µM (inactive); in the assay with OVCAR-4, 36.1 µM (inactive); in the assay with OVCAR-5 it was 42.3 µM (inactive); in the assay with OVCAR-8, 34.3 µM (inactive). Also, the GI50 was 52.1 µM (inactive) in the assay on SF-295, 35.8 µM (inactive) in the assay on SK-MEL-28, 43.6 µM (inactive) with SNB-19 and 30.4 µM (inactive) in the assay with UACC-257.
For `COC(=O)c1ccccc1CC(Cc1ccccc1)C(=O)OC` (stereo not drawn), the GI50 is 64.6 µM (inactive) in the assay on COLO 205; 45.9 µM (inactive) with EKVX; 40.3 µM (inactive) in the assay on HCC 2998; 31.3 µM with HCT-15; 55.5 µM (inactive) in the assay with HT-29; 64.4 µM (inactive) in the assay on Malme-3M. Also, the GI50 in the assay on NCI-H226 was 43.1 µM (inactive); in the assay on NCI-H23 it was 46.6 µM (inactive); in the assay on NCI-H460 it was > 100 µM (inactive); in the assay on OVCAR-4, 96.8 µM (inactive); with OVCAR-5, 62.7 µM (inactive); in the assay on OVCAR-8, 87.1 µM (inactive). Also, the GI50 in the assay with SF-295 was > 100 µM (inactive); with SK-MEL-28 it was > 100 µM (inactive); in the assay with SNB-19, 68.4 µM (inactive); in the assay with SR it was 27 µM (inactive); in the assay on UACC-257 it was 72.1 µM (inactive).
In the case of `CC[C@@H]1CC[C@@H]2[C@H](CC[C@]3(C)[C@@H](O)CC[C@@H]23)[C@H]1CO`, the GI50 is 79.8 µM (inactive) in the assay with COLO 205; > 100 µM (inactive) in the assay with EKVX; > 100 µM (inactive) with HCC 2998; above 100 µM in the assay with HCT-15; > 100 µM (inactive) in the assay with HOP-92; 39.3 µM (inactive) with HT-29. Also, the GI50 is > 100 µM (inactive) in the assay with Malme-3M; > 100 µM (inactive) with NCI-H226; > 100 µM (inactive) in the assay with NCI-H23; > 100 µM (inactive) in the assay on NCI-H460; 71 µM (inactive) in the assay on OVCAR-4; > 100 µM (inactive) with OVCAR-5. In addition, the GI50 with OVCAR-8 was > 100 µM (inactive); in the assay with SF-295, 77.3 µM (inactive); in the assay on SK-MEL-28, > 100 µM (inactive); in the assay on SNB-19, > 100 µM (inactive); in the assay with UACC-257, > 100 µM (inactive).
As for `CN(C)c1ccc(/C=C/C(=O)CC(=O)/C=C/c2ccc(N(C)C)cc2)cc1`, the GI50 in the assay with COLO 205 was > 100 µM (inactive); in the assay with EKVX it was > 100 µM (inactive); in the assay with HCC 2998, > 100 µM (inactive); in the assay with HCT-15, above 100 µM; with HT-29, > 100 µM (inactive); in the assay with Malme-3M, > 100 µM (inactive). For the same molecule, the GI50 in the assay on NCI-H226, with NCI-H460, in the assay on OVCAR-4, in the assay with OVCAR-5, in the assay on OVCAR-8 and in the assay on SF-295 was > 100 µM (inactive) each time. Also, the values for the GI50 with SK-MEL-28, with SNB-19 and with SR were > 100 µM (inactive), > 100 µM (inactive) and 36.2 µM (inactive), respectively.
`Nc1nc(Cl)cc(NCC2(CO)CCC(Cc3ccccc3)C2)n1` (stereo not drawn): the GI50 is 12.8 µM (inactive) with COLO 205; 8.71 µM (inactive) with EKVX; 25.8 µM (inactive) in the assay with HCC 2998; 27.4 µM in the assay on HCT-15; 20.6 µM (inactive) in the assay on HOP-92; 19.1 µM (inactive) with HT-29. The GI50 was 10.2 µM (inactive) in the assay with Malme-3M; 22.3 µM (inactive) in the assay with NCI-H226; 2.87 µM (inactive) in the assay on NCI-H23; 18.6 µM (inactive) with NCI-H460; 13.6 µM (inactive) with OVCAR-4; 33.3 µM (inactive) with OVCAR-5. Besides, the GI50 was 15.6 µM (inactive) with OVCAR-8; 10.1 µM (inactive) in the assay with SF-295; 37.5 µM (inactive) in the assay with SK-MEL-28; 33.5 µM (inactive) with SNB-19; 2.78 µM (inactive) in the assay on UACC-257.
For `NCCCN(CCCCN(CCCN)Cc1ccc2ccccc2c1)Cc1ccc2ccccc2c1`, the GI50 in the assay with COLO 205 is 2.55 µM (inactive); in the assay with EKVX, 1.77 µM (inactive); in the assay on HCC 2998, 2.86 µM (inactive); in the assay on HCT-15, 3.58 µM; in the assay with HOP-92 it was 2.83 µM (inactive); in the assay with HT-29 it was 1.7 µM (inactive). Besides, the GI50 with Malme-3M is 1.76 µM (inactive); in the assay on NCI-H226 it was 1.8 µM (inactive); in the assay on NCI-H23 it was 1.85 µM (inactive); in the assay with NCI-H460, 1.55 µM (inactive); with OVCAR-4, 1.99 µM (inactive); with OVCAR-5, 1.84 µM (inactive). Besides, the GI50 was 1.82 µM (inactive) in the assay on OVCAR-8; 2.12 µM (inactive) with SF-295; 1.92 µM (inactive) with SK-MEL-28; 1.53 µM (inactive) with SNB-19; 2.02 µM (inactive) with UACC-257.
Take `CCOc1ccc(NC(=S)N/C=C(/C(C)=O)C(=O)Nc2ccccc2C)cc1`: the GI50 is > 100 µM (inactive) in the assay on COLO 205; > 100 µM (inactive) in the assay with EKVX; > 100 µM (inactive) with HCC 2998; above 100 µM in the assay on HCT-15; > 100 µM (inactive) in the assay on HT-29; > 100 µM (inactive) in the assay on NCI-H226. Also, the GI50 with NCI-H23 is > 100 µM (inactive); in the assay with NCI-H460, > 100 µM (inactive); in the assay with OVCAR-4 it was 59.8 µM (inactive); with OVCAR-5 it was > 100 µM (inactive); with OVCAR-8 it was > 100 µM (inactive); in the assay on SF-295 it was > 100 µM (inactive). The GI50 in the assay on SNB-19 and in the assay with UACC-257 was > 100 µM (inactive) in each case.
For `CCCCNC(=O)c1cc(S(=O)(=O)n2ccnc2O)c(SC)cc1Cl`, the GI50 was > 100 µM (inactive) in the assay with COLO 205; > 100 µM (inactive) with EKVX; > 100 µM (inactive) with HCC 2998; above 100 µM with HCT-15; > 100 µM (inactive) in the assay with HT-29; > 100 µM (inactive) in the assay on Malme-3M. The GI50 with NCI-H23, in the assay with NCI-H460, in the assay with OVCAR-4, in the assay on OVCAR-5, with OVCAR-8 and in the assay with SF-295 was > 100 µM (inactive) each time. The GI50 in the assay with SK-MEL-28, in the assay on SNB-19, with SR and in the assay on UACC-257 was > 100 µM (inactive) each time.
Regarding `CC1(C)OC2OC(C(COS(=O)(=O)C(F)(F)F)N=[N+]=[N-])C(OC(=O)c3ccccc3)C2O1` (stereo not drawn), the GI50 in the assay with COLO 205 is > 100 µM (inactive); in the assay on EKVX, > 100 µM (inactive); in the assay with HCC 2998, > 100 µM (inactive); in the assay on HCT-15 it was above 100 µM; with HOP-92 it was > 100 µM (inactive); in the assay with HT-29, > 100 µM (inactive). Also, the GI50 in the assay with Malme-3M, with NCI-H226, in the assay on NCI-H23, in the assay with NCI-H460, in the assay on OVCAR-4 and in the assay with OVCAR-5 was > 100 µM (inactive) each time. Moreover, the GI50 in the assay on OVCAR-8, in the assay with SF-295, in the assay with SK-MEL-28, in the assay with SNB-19 and in the assay on UACC-257 was > 100 µM (inactive) throughout.
Turning to `CC1(C)C(=S)C(C)(C)C1=S`, the GI50 in the assay on COLO 205 is > 100 µM (inactive); with EKVX it was > 100 µM (inactive); with HCC 2998, > 100 µM (inactive); with HCT-15 it was above 100 µM; in the assay with HT-29, > 100 µM (inactive); in the assay with Malme-3M it was > 100 µM (inactive). Further, the GI50 in the assay with NCI-H226, in the assay with NCI-H23, with NCI-H460, with OVCAR-4, with OVCAR-5 and with SK-MEL-28 was > 100 µM (inactive) throughout. In addition, the GI50 with SNB-19, in the assay with SR and with UACC-257 was > 100 µM (inactive) each time.
For the molecule `Cc1cc(-c2nc3c(F)cccc3s2)ccc1N`, the GI50 with COLO 205 is 80.5 µM (inactive); in the assay with EKVX, 2.42 µM (inactive); in the assay on HCT-15 it was 84.9 µM; in the assay with HOP-92 it was > 100 µM (inactive); in the assay with HT-29, 44.8 µM (inactive); in the assay with Malme-3M, 28.8 µM (inactive). The GI50 in the assay on NCI-H23 is 32.8 µM (inactive); in the assay with OVCAR-8, > 100 µM (inactive); in the assay with SF-295, 41.2 µM (inactive); with SK-MEL-28, > 100 µM (inactive); in the assay on SR, 48 µM (inactive); in the assay on UACC-257, 82.6 µM (inactive).
